Measured values from patent US4424211A, “2'Deoxy-5-(2-halogenovinyl)-uridines, pharmaceutical compositions and method of use” (Rega Instituut VZW, priority 1981, dated 1984).
Converted amounts (≈) assume the structure as drawn. “Also recorded” adds a separate entry of the source. Read-outs that look alike come from different tables or passages of the source.

What was measured:
cell culture [1] = assay: Toxicity in cell culture (summary statement)
[2] = Antimetabolic activity: inhibition of (methyl-^3 H)TdR incorporation into DNA of PRK cells (Test 3a); format: cell-based; conditions: rabbit
Experimental: (§1) (a) In a first experiment, the incorporation of certain radiolabelled DNA precursors into DNA of the cells, and the effect of 5-(2-bromovinyl)-2'-deoxyuridine and related compounds thereon, was tested. The technique has been described by De Clercq et al in Biochemical Pharmacology, 26, 794-797 (1977) and by De Clercq et al in Molecular Pharmacology, in press, 1978, which are incorporated herein by way of reference.
(§2) The DNA precursors as used were (methyl-^3 H) (2'-deoxythymidine) (TdR), and (2-^14 C) (2'-deoxyuridine) (UdR).
(§3) Incorporation of the radiolabelled precursor was then measured as described and the ID50 was determined.

[3] = Antimetabolic activity: inhibition of (2-^14 C)UdR incorporation into DNA of PRK cells (Test 3a); format: cell-based; conditions: rabbit
Experimental: as §1, §2, §3

vaccinia virus = assay: microbe, parasite or virus in culture; format: cell-based; conditions: Orthopoxvirus vaccinia, 72 h
[4] = Antimetabolic activity: reduction of total cell number of PRK cells (Test 3b); conditions: rabbit
[5] = system: herpes simplex-1 (strain KOS) virus; assay: microbe, parasite or virus in culture; format: cell-based, herpes simplex-1 virus (strain KOS); conditions: for IC50: 72 h, 100 CCID50, CPE, generally 3 days, average of three experiments; for selectivity of antiviral activity (in words): herpes simplex virus
herpes simplex-1 = assay: Antiviral index in PRK cell cultures: antimetabolic ID50 divided by antiviral ID50 (Test 4); format: cell-based, herpes simplex-1 virus; conditions: for Antiviral index: PRK cells, ID50 cell number / ID50 CPE of herpes simplex-1; for antiviral index (in words): against herpes simplex virus
Experimental: Finally, the antiviral index of 5-(2-bromovinyl)-2'-deoxyuridine and its related compounds in PRK cell cultures was determined as a result of the measurements made in the foregoing tests.
The antiviral index was calculated by dividing the "antimetabolic" ID50 by the "antiviral" ID50. The "antimetabolic" ID50 corresponded to the dose required to reduce the cell number by 50% whereas the "antiviral" ID50 corresponded to the dose required to inhibit the cytopathic effect of herpes simplex-1 by 50%.

cell culture [6] = system: cell culture
[7] = system: DNA viruses such as vaccinia and herpes simplex; conditions: state of the art; cited from earlier work
[8] = state of the art; cited from earlier work
in vitro = conditions: rabbit, prk cells
[9] = PRK cells, 16 hours, read-out: ID50 (methyl-^3 H)TdR incorporation into DNA
[10] = PRK cells, 16 hours, read-out: ID50 (2-^14)UdR incorpor. into DNA
[11] = HSF, read-out: ID50 Vaccinia (HSF)
[12] = PRK, in Oryctolagus cuniculus, read-out: ID50 Vaccinia (PRK)
[13] = human skin fibroblast (HSF) cells, read-out: ID50 Herpes simplex-1 strain KOS (HSF)
[14] = primary rabbit kidney (PRK) cells, read-out: ID50 Herpes simplex-1 strain KOS (PRK)

SMILES | toxicity (in words) (cell culture [1]) | IC50 at 16 h [2, 9] [µg/mL] | IC50 at 16 h [3, 10] [µg/mL] | IC50 (vaccinia virus; [11]) [µg/mL] | IC50 (vaccinia virus; [12]) [µg/mL] | CC50 at 72 h [4] [µg/mL] | IC50 [5, 13] [µg/mL] | IC50 [5, 14] [µg/mL] | selectivity of antiviral activity (in words) [5] | Antiviral index (herpes simplex-1) | antiviral index (in words) (herpes simplex-1) | toxicity (in words) (cell culture [6]) | antiviral activity/specificity of known compounds (in words) [7] | IC50 at 16 h ([2]; prk cells) [µg/mL] | IC50 at 16 h ([3]; prk cells) [µg/mL] | toxicity of known compounds (in words) [8] | CC50 at 72 h (in vitro) [µg/mL]
O=c1[nH]c(=O)n([C@H]2C[C@H](O)[C@@H](CO)O2)cc1/C=C/Br [E-5-(2-bromovinyl)-2'-deoxyuridine] | remarkably low | 70 (≈ 210 µM) | 35 (≈ 105 µM) | 0.7 (≈ 2.1 µM) | 7 (≈ 21 µM) | > 33 | 0.007 (≈ 0.021 µM) | 0.007 (≈ 0.021 µM) | specific antiviral activity; also recorded: very selective towards herpes simplex virus | > 5000 | remarkably high antiviral index | – | – | – | – | – | –
O=c1[nH]c(=O)n([C@H]2C[C@H](O)[C@@H](CO)O2)cc1/C=C/I [E-5-(2-iodovinyl)-2'-deoxyuridine] | – | – | – | – | 10 (≈ 26.3 µM) | – | – | 0.01 (≈ 0.0263 µM) | specific antiviral activity; also recorded: very selective towards herpes simplex virus | – | high antiviral index | remarkably low | – | – | – | – | –
O=c1[nH]c(=O)n([C@H]2C[C@H](O)[C@@H](CO)O2)cc1I [2'-deoxy-5-iodouridine] | – | – | – | 0.2 (≈ 0.565 µM) | 0.2 (≈ 0.565 µM) | – | 0.7 (≈ 1.98 µM) | 0.2 (≈ 0.565 µM) | – | 30 | – | – | act equally well against different DNA viruses such as vaccinia and herpes simplex | 2.5 (≈ 7.06 µM) | 1.2 (≈ 3.39 µM) | cannot be neglected | 6 (≈ 16.9 µM)
C=C(Cl)c1cn([C@H]2C[C@H](O)[C@@H](CO)O2)c(=O)[nH]c1=O [5-(1-chlorovinyl)-2'-deoxyuridine] | – | – | – | 0.7 (≈ 2.42 µM) | 0.4 (≈ 1.39 µM) | – | 2 (≈ 6.93 µM) | 0.4 (≈ 1.39 µM) | – | 5 | – | – | – | 27 (≈ 93.5 µM) | < 6 | – | 2 (≈ 6.93 µM)
C=Cc1cn([C@H]2C[C@H](O)[C@@H](CO)O2)c(=O)[nH]c1=O [2'-deoxy-5-vinyluridine] | – | – | – | 0.1 (≈ 0.393 µM) | 0.4 (≈ 1.57 µM) | – | 0.07 (≈ 0.275 µM) | 0.04 (≈ 0.157 µM) | – | 200 | – | – | act equally well against different DNA viruses such as vaccinia and herpes simplex | 20 (≈ 78.7 µM) | 8 (≈ 31.5 µM) | cannot be neglected | 8 (≈ 31.5 µM)
C#Cc1cn([C@H]2C[C@H](O)[C@@H](CO)O2)c(=O)[nH]c1=O [2'-deoxy-5-ethynyluridine] | – | 100 (≈ 396 µM) | < 6 | 0.1 (≈ 0.396 µM) | 0.2 (≈ 0.793 µM) | 0.3 (≈ 1.19 µM) | 0.4 (≈ 1.59 µM) | 0.07 (≈ 0.278 µM) | – | 5 | – | – | – | – | – | – | –
